pIC50: −log10 of the molar value.
Target: 5'-nucleotidase (Homo sapiens, UniProt P21589)
Assay: Enzyme Activity In Vitro Assay: I. Experimental Materials and Equipment1. Malachite green phosphate detection kit (R & D Systems, Cat #, DY996)2. Recombinant human 5′-nucleotidase (CD73) (R & D Systems, Cat #, 5795-EN)3. HEPES buffer (Gibco, Cat #, 15630-080)4. CMP (Sigma, Cat #, C1006)5. DMSO (Fisher Chemical, Cat #, D128-1)6. NaCl 5M (Boston Bioproducts, Cat #, BM-244)7.384-well plate (Fisher, Cat #, 5795-EN)8. TECAN plate reader (TECAN)II. Experimental ProcedureCompounds are first dissolved in DMSO to 10 mM as a stock solution. When determining the IC50 of the compound, prepare 3-fold serial dilutions with a highest concentration of 125 μM for a total of 12 concentration points and ensure each dilution containing equal amount of DMSO. In each well of 384-well plate, 0.34 nM of recombinant human 5′-nucleotidase (CD73) was pre-incubated at 37° C. for 2 hours with the compounds tested in assay buffer containing 20 mM HEPES buffer (pH 7.4), 137 mM NaCl, 0.001% Tween 20. The final reaction volume of the reaction in each well was 12 μL. The highest concentration of compound was 125 μM and the DMSO concentration was 1.25%. After pre-incubation, 3 μL of CMP dissolved in assay buffer was added to each reaction. The final CMP concentration was 45 μM. The reaction was incubated at 37° C. for 15 minutes. Then 3 μL of Malachite Green Reagent A was added to each reaction. […]

Chain of 5'-nucleotidase (P21589 whole entry): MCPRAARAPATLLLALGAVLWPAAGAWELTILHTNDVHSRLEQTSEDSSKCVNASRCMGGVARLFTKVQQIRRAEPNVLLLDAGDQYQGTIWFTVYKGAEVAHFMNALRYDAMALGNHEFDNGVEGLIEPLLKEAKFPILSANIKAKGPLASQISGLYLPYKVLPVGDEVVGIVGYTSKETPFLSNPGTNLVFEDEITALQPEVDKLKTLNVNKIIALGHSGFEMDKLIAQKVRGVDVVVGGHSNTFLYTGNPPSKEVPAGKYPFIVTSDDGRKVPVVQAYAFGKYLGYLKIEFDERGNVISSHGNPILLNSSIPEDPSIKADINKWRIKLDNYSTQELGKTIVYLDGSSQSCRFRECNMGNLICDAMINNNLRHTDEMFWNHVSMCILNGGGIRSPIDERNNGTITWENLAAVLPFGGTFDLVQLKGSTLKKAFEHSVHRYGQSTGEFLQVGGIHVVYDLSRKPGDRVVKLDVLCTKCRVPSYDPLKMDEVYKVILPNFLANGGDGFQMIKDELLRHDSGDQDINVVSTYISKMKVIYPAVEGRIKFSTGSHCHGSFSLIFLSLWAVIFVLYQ

## CC(OC(=O)C(C)(C)C)OP(=O)(COC[C@H]1O[C@@H](n2ncc3c(N4CC5(CCc6ccccc65)C4)nc(Cl)nc32)[C@H](O)[C@@H]1O)OC(C)OC(=O)C(C)(C)C (stereo partly specified)
  pIC50: 6.57

From ChEMBL document CHEMBL5729111, “CD73 inhibitors and therapeutic uses thereof” (2022)
